Measurements published in patent US10578610B2, “Peptide regulators of mitochondrial fusion and methods of use” (priority 2016, dated 2020).
Square brackets hold non-standard residues; d marks the D form. Ends that are not written are not given here. pS = N[C@@H](COP(=O)(O)O)C(=O)O

Columns and labels:
[1] = system: WT MEFs; type: cell-based, murine; details: WT MEFs; varying concentrations / time course
Experimental: (§1) MEFs or neurons were grown on chamber slides and infected with recombinant adenoviri for 48-72 hours unless otherwise indicated. MEFs were stained with MitoTracker Green (200 nM, Invitrogen M7514) and Blue Hoechst (10 mg/ml, Invitrogen H3570), with or without tetramethylrhodamine ethyl ester (TMRE; 200 nM, Invitrogen T-669). Neuronal mitochondria were labeled with adenoviral-expressed mitoGFP plus TMRE, or with adeno-mitoDsRed for time-lapse studies. Cover slips were loaded onto a chamber (Warner instrument, RC-40LP) in modified Krebs-Henseleit buffer (138 mM NaCl, 3.7 mM KCl, 1.2 mM KH2PO4, 15 mM Glucose, 20 mM HEPES and 1 mM CaCl2) at room temperature and visualized on a Nikon Ti Confocal microscope equipped with a 60×1.3 NA oil immersion objective. For mitophagy studies MEFs were stained with MitoTracker Green and infected with adeno-mcherry Parkin or stained with LysoTracker Deep Red (50 nM, Invitrogen L-7528); carbonylcyanide p-trifluoromethoxyphenylhydrazone (FCCP, 10 μM for 1 hour) was applied as a positive control. Mitochondrial fusion was measured at 2 and 6 hours after PEG-mediated cell fusion of MEFs treated 48 hours previously with adeno-mitoGFP or adeno-mitoDsRed (Chen et al., 2005, J Biol Chem, 280:26185-26192). Laser confocal fluorescence was excited with 561 nm (MitoTracker Green, GFP, FITC), 637 nm (TMRE, LysoTracker Red, mcherry-Parkin, MitoTracker Orange) or 408 nm (Blue Hoechst) laser diodes. Image analysis—Mitochondrial aspect ratio was calculated using automated edge detection and Image J software (Song et al., 2015, Cell Metab, 21:273-285). Mitochondrial depolarization was calculated as % of green mitochondria visualized on MitoTracker Green and TMRE merged images, expressed as green/(green+yellow mitochondria)×100. Parkin aggregation was calculated as % of cells with mitochondrial clumping of mcherry-Parkin (Song et al., 2015, Cell Metab, 21:273-285). Lysosomal engulfment of mitochondria was identified by colocalization of LysoTracker Red and MitoTracker Green (Song et al., 2015, Cell Metab, 21:273-285).
TAT47-57 is a well-characterized “carrier” peptide able to promote active cellular peptide uptake. Specifically, a linear peptide was constructed in which the hMfn2 modulatory peptide was linked by a peptide bond at its C-terminus to a Gly-Gly dipeptide linker whose C-terminus was linked by a peptide bond to the TAT47-57 peptide having the sequence YGRKKRRQRRR (SEQ ID NO:25). The resultant linear fusion-promoting peptide conjugate comprises the sequence […] (SEQ ID NO:23). The fusion-inhibiting linear peptide has the sequence […] (SEQ ID NO:24). Except for dose-response studies, stock concentrations of TAT-minipeptides in sterile water were applied to cultured MEFs at a dilution factor of 1:2000 to achieve final concentrations of 1 or 5 μM.
The functional consequences of the Mfn2 HR1-derived peptides were defined after synthesizing them as C-terminal TAT47-57 conjugates to promote active cellular uptake. Mitochondrial fusion can be detected by mixing of organellar contents (Chen et al., 2005, J Biol Chem, 280:26185-26192). […] (FIG. 8A, scale bar is 20 microns). Mitochondrial aspect ratio changed in parallel with mitochondrial mixing (FIG. 8B).
Experiments were performed with these shortened variants fused to a carrier peptide via a linker according to the methods described in Example 5 above. Wildtype MEFs were treated with varying concentrations of peptide fusion constructs described in Table 4 and mitochondrial aspect ratios determined. A dose response curve for TetherX-N and -C variants are shown in FIG. 17A (squares are data for TetherX-N and circles are for TetherX-C). The dose response curve for GoFuse-N and -C variants are shown in FIG. 17B (squares are for GoFuse-N and circles are for GoFuse-C).

[2] = system: WT MEFs and Mfn2 KO MEFs; assay: Parkin recruitment and mitophagy induced by mitochondrial depolarization, adenoviral expression; type: cell-based, murine; details: data not shown
Experimental: as §1
Also studied were the effects of the adenoviral expression of WT Mfn2, HR1 peptide, adeno367-384 and its glycine variant and adeno398-418 and its glycine variant on Parkin recruitment and mitophagy induced by mitochondrial depolarization which are also impaced by the Mfn1 and Mfn2 proteins (Chen et al., 2013, Science, 340:471-475; Gong G. et al., 2015, Science, 350:aad2459). These studies were performed using WT MEFs and Mfn2 KO MEFs.

[3] = system: murine embryonic fibroblasts (MEFs) expressing Mfn1 and/or Mfn2; assay: Mitochondrial aspect ratio and polarization in MEFs infected with adenovirus expressing Mfn2 HR1 peptides; type: cell-based; details: adenoviral expression; for mitochondrial aspect ratio (length/width; an index of mitochondrial fusion): MOI 100, WT and Mfn2 null MEFs, vs Ad-Null/β-gal control; for mitochondrial polarization status: WT MEFs, TMRE; for mitochondrial aspect ratio (elongation/shortening) compared with adeno-HR1 or Mfn deletion: WT, Mfn1 KO, Mfn2 KO, Mfn1/Mfn2 DKO MEFs
Experimental: The effect of each of the peptides listed in Table 1 on mitochondrial function was tested in a cell culture system using murine embryonic fibroblasts (MEFs) as described in Example 4. Wild-type MEFs express both Mfn1 and Mfn2. Also used were MEFs in which the Mfn2 gene was knocked out (MEF Mfn2 KO). The details of the experiments are provided in Example 3. In these experiments, the MEFs were infected with adenovirus (AV) engineered to express one of the peptides or full-length Mfn2 as a control. Mitochondrial fusion activity was measured using confocal microscopy and quantitative analysis of the mitochondrial aspect ratio which is a measurement of mitochondria length/width and is an accepted index of mitochondrial fusion. […] As with all confocal microscopic images provided herein, treated cells were stained to allow quantitative assessment of mitochondrial aspect ratio and polarization using methods routine in the art. In Examples 4-8, MitoTracker Green is used to stain the mitochondria to allow measurement of mitochondrial length and width to determine the aspect ratio. Red TMRE is used to measure mitochondrial polarization (membrane potential). Blue Hoechst stains nuclei.
Empty adenovirus (Ad-CMV-Null; #1300) and adenoviri expressing β-Galactosidase (Ad-CMV-b-Gal; #1080) or Cre recombinase (Ad-CMV-iCre; #1045) were from Vector Biolabs. Adenoviral expression vectors for hMfn2 HR1 and the minipeptides and Gly or Pro mutants were generated and amplified using standard methods. Adenoviral vectors were added to MEFs at 50% confluence at an MOI of 100.
as §1
First, an adenovirus which recombinantly expressed the hMfn2 HR1 binding fragment (adeno HR1) was introduced into MEFs. It was reasoned that competition of the intra-molecular HR1-HR2 interaction by free HR1 fragment would increase mitochondrial fusion. […]

[4] = system: mitochondrial fusion; assay: Alanine scanning of TetherX-1 and Go-Fuse peptides, effect on mitochondrial fusion in cells; type: cell-based; details: variants linked to TAT carrier via GG linker; compared with SEQ ID NO:48 or 50
Experimental: Alanine scanning mutagenesis experiments were performed in order to identify amino acids critical for the function of the TetherX-1 and Go-Fuse peptides. Alanine was individually substituted for each amino acid in the Tetherx-1 and Go-Fuse peptides and the modified peptides, linked to the TAT carrier peptide via a GG linker, were administered to cells and the effect on mitochondrial fusion measured. Table 5 lists Go-Fuse variants which maintained fusion-promoting activity (activity similar to that of SEQ ID NO:48 or 50) while Table 6 lists variant Go-Fuse peptides in which substitutions had no effect (substitution of a non-critical amino acid).

Row | Substance | mitochondrial aspect ratio (effect of TAT fusion construct) [1] | Parkin recruitment and mitophagy induced by mitochondrial depolarization [2] | mitochondrial aspect ratio (length/width; an index of mitochondrial fusion) [3] | also measured
1 | GIMDSLHMAARGGYGRKKRRQRRR [GoFuse-C] | induced mitochondrial elongation |  |  | 
2 | QIAEAVRLIMDSLHMAAR (listed as Homo sapiens) [adeno367-384] |  | No significant effects |  | 
3 | GELLAQDYKLRGGYGRKKRRQRRR [TetherX-C] | provoked mitochondrial fragmentation |  |  | 
4 | QIAEAVRGIMDSLHMAAR [adeno367-384Gly, Mfn2 HR1 minipeptide, expressed in cells from adenoviral vector] |  | did not adversely impact | promoted fusion | mitochondrial polarization status [3]: did not adversely impact mitochondrial polarization status; mitochondrial aspect ratio (elongation/shortening) compared with adeno-HR1 or Mfn deletion [3]: comparable to that produced by adeno-HR1
5 | QIAEAVRGGYGRKKRRQRRRR [GoFuse-N, N-terminal fragment of GoFuse-1 fused to TAT carrier, as tested] | lacked fusion-promoting activity |  |  | 
6 | RQVSTAMAEEIRRLSVLVDDY (listed as Homo sapiens) [adeno428-448, non-HR1 control peptide] |  |  | did not affect mitochondrial fusion | 
7 | GIMD(p)SLHMAARGGYGRKKRRQRRR (GIMD[pS]LHMAARGGYGRKKRRQRRR) [SEQ ID NO:54] |  |  |  | fusion-promoting activity (Mfn agonist activity) of Go-Fuse variants [4]: statistically active
8 | QDRLKFIDKQLELLAQDYKLR (listed as Homo sapiens) [adeno398-418] |  | No significant effects |  | 
9 | QDRLKFIDKQGGYGRKKRRQRRR [TetherX-N, N-terminal fragment of TetherX-1 fused to TAT carrier, as tested] | exhibited little activity |  |  | 
10 | QDRLKFIDKQGELLAQDYKLR [adeno398-418Gly, Mfn2 HR1 minipeptide, expressed in cells from adenoviral vector] |  | did not adversely impact | potently suppressed fusion | mitochondrial polarization status [3]: did not adversely impact mitochondrial polarization status
11 | FQNFERRFEECISQSAVKTKFEQHTVRAKQIAEAVRLIMDSLHMAAREQQVYCEEMREERQDRLKFIDKQLELLAQDYKLRIKQ [adeno-HR1] |  | No significant effects | increased mitochondrial aspect ratio | mitochondrial aspect ratio (elongation/shortening) compared with adeno-HR1 or Mfn deletion [3]: altered mitochondrial aspect ratio
